We go through one molecule from patent US11318152B2, “Pharmaceutical agent for improving autism spectrum disorder and mental disease” (MATSUTANI CHEMICAL INDUSTRY CO., LTD., priority 2018, dated 2022).

For experiment [1], the system named is paraventricular nucleus (PVN), supraoptic nucleus (SON) and new region of the hypothalamus. Briefly: c-Fos immunostaining of hypothalamus sections after oral administration. It is filed as in vivo, C57BL/6J male mice. The following applies: oral 1 or 3 g/kg, fasted mice, 90 minutes after administration, vs saline (FIG. 1A). The procedure:
(§1) For brain regions that are activated by the oral administration of D-allulose, the expression levels of a neuronal activation marker (c-Fos) were analyzed by the immunostaining method. c-Fos is one of immediate early genes, is a nuclear protein whose expression level increases along with activation of nerves, and thus can be utilized as a neuronal activation marker. C57BL/6J male mice were used as experimental animals and were acclimatized to an environment through preliminary breeding and handling for 1 week or more in individual cages. Saline or D-allulose (1 or 3 g/kg) was orally intragastrically administered to the mice which were fasted for one night, and 90 minutes after the administration, the mice were perfusion fixed in a 4% paraformaldehyde solution and the brains were resected. The organs were postfixed in a 4% paraformaldehyde solution to prepare frozen section specimens. This frozen section specimen was used to immunostain c-Fos. In the case of double immunostaining for oxytocin/vasopressin and c-Fos, the perfusion fixation and the postfixation were conducted in a mixed solution of 4% paraformaldehyde and 0.2% picric acid. Note that in the experiment for analyzing c-FOS expression level (FIG. 1A to FIG. 1D), C57BL/6J male mice of saline group: n=7, 1 g/kg and 3 g/kg D-allulose group: n=5 each were used. […]

For another experiment, the system named is vasopressin mRNA. Briefly: vasopressin mRNA expression in hypothalamus, quantitative real-time PCR. The following applies: oral 3 g/kg, 2 hours after administration, vs saline-administered group, relative to 36b4 (FIG. 5). It is filed as in vivo, C57BL/6J male mice. As to the method:
(§2) C57BL/6J male mice (saline group: n=8, D-allulose group: n=9) were used as experimental animals and were acclimatized to an environment through preliminary breeding and handling for 1 week or more in individual cages. Saline or D-allulose (3 g/kg) was orally intragastrically administered to the mice which were fasted for one night, and 2 hours after the administration, the brain's hypothalamus was resected under anesthesia. cDNA was synthesized using the total RNA in hypothalamus as a template. The mRNA expression levels of oxytocin and vasopressin were quantified by the quantitative real-time PCR method. As the housekeeping gene, 36b4 was used. The mRNA expression levels were quantified in accordance with the ΔΔCt method. The target gene expression level in each sample was corrected with the expression level of 36b4 to obtain the relative expression level to 36b4 (ΔCT=the CT value of 36b4−the CT value of the target gene, the relative expression level=2ΔCT).
(§3) Moreover, the mRNA expression level ratio with the average value of the relative expression level of the saline group being set to 1 (the average value of the relative gene expression level of the D-allulose group to 36b4/the average value of the relative expression level of the saline group to 36b4) was obtained to analyze the change in gene expression level in the administration of D-allulose. […]
(Real-time PCR tracks product formation cycle by cycle.)

In another experiment the test system is oxytocin (OXT) neurons. Briefly: double immunostaining for oxytocin and c-Fos after oral administration. It is filed as in vivo, C57BL/6J male mice. The settings on record: oral 3 g/kg, 90 minutes after administration. The procedure:
as §1, with “In” for “Note that in”, “c-Fos positive neurons in the oxytocin (OXT) neurons of paraventricular nucleus (PVN)” for “c-FOS expression level”, “2A and” for “1A to”, “2B),” for “1D),”, “n=4,” for “n=7, 1 g/kg and”, “n=6 were used. In the experiment for analyzing c-Fos positive neurons in the vasopressin (AVP) neurons of paraventricular nucleus (PVN) (FIG. 2C and FIG. 2D), C57BL/6J male mice of saline group: n=4, 3 g/kg D-allulose group: n=6 were used. In the experiment for analyzing c-Fos positive neurons in the oxytocin (OXT) neurons or vasopressin (AVP) neurons of paraventricular nucleus (PVN) (FIG. 3A and FIG. 3B), C57BL/6J male mice of saline group n=4, 3 g/kg D-allulose group: n=6 were used. In the experiment for analyzing c-Fos positive neurons in the oxytocin (OXT) neurons or vasopressin (AVP) neurons of the new region (FIG. 4A and FIG. 4B), C57BL/6J male mice of saline group: n=4, 3 g/kg D-allulose group: n=6” for “n=5 each”

For experiment [2], the system named is C57BL/6J male mice. Briefly: Sociality test (social interaction test). It is filed as in vivo. The settings on record: 10 minutes, vs saline, p<0.05 (FIG. 7B). The procedure:
The sociality test (also called the social interaction test) is an open field test using 2 individual mice that meet for the first time in order to investigate the sociality. The fundamental procedure of the sociality test is the same as that of the open field test using 1 individual member. However, at the time of starting the behavioral observation, mice are placed at the opposing corners of the field and their moving is recorded as moving picture for 10 minutes. This test is intended to evaluate the sociality of mice by measuring frequencies and times of social behaviors such as sniffing, grooming, attack, and tail-rattling between 2 individual members. C57BL/6J male mice (8-week old) were bred for 1 week under a free-feeding condition with a light-dark cycle of 12 hours and were subjected to the open field and sociality tests. Handling and gavage training was conducted for 4 days before the test. In order to evaluate the sociality with a same-sex mouse, each mouse was placed together with a mouse (new mouse) which it met for the first time in a breeding cage (27×27×20 cm^3) and an accumulation time of the exploratory behavior against the new mouse during an exploratory behavior time of 10 minutes was measured.

Experiment [3] concerns vasopressin (AVP) neurons. Briefly: double immunostaining for vasopressin and c-Fos after oral administration. It counts as in vivo, C57BL/6J male mice. The settings on record: oral 3 g/kg, 90 minutes after administration. As to the method:
For brain regions that are activated by the oral administration of D-allulose, the expression levels of a neuronal activation marker (c-Fos) were analyzed by the immunostaining method. c-Fos is one of immediate early genes, is a nuclear protein whose expression level increases along with activation of nerves, and thus can be utilized as a neuronal activation marker. C57BL/6J male mice were used as experimental animals and were acclimatized to an environment through preliminary breeding and handling for 1 week or more in individual cages. Saline or D-allulose (1 or 3 g/kg) was orally intragastrically administered to the mice which were fasted for one night, and 90 minutes after the administration, the mice were perfusion fixed in a 4% paraformaldehyde solution and the brains were resected. The organs were postfixed in a 4% paraformaldehyde solution to prepare frozen section specimens. This frozen section specimen was used to immunostain c-Fos. In the case of double immunostaining for oxytocin/vasopressin and c-Fos, the perfusion fixation and the postfixation were conducted in a mixed solution of 4% paraformaldehyde and 0.2% picric acid. In the experiment for analyzing c-Fos positive neurons in the vasopressin (AVP) neurons of paraventricular nucleus (PVN) (FIG. 2C and FIG. 2D), C57BL/6J male mice of saline group: n=4, 3 g/kg D-allulose group: n=6 were used. In the experiment for analyzing c-Fos positive neurons in the oxytocin (OXT) neurons or vasopressin (AVP) neurons of paraventricular nucleus (PVN) (FIG. 3A and FIG. 3B), C57BL/6J male mice of saline group n=4, 3 g/kg D-allulose group: n=6 were used. In the experiment for analyzing c-Fos positive neurons in the oxytocin (OXT) neurons or vasopressin (AVP) neurons of the new region (FIG. 4A and FIG. 4B), C57BL/6J male mice of saline group: n=4, 3 g/kg D-allulose group: n=6 were used. The obtained results are represented by the average values and the standard errors, the statistical testing used the unpaired t-test, * is described by the P value of less than 5% and ** is described by the P value of less than 1%.

Experiment [4] has as its system C57BL/6J male mice. Description: Open field test. It is filed as in vivo. The settings on record: 5 minutes exploration. The text has this: The open field test is a test that evaluates spontaneous activity, anxiety-like behavior, and the like in a novel environment by measuring the distance traveled, the number of rearings, the stereotyped behavior, the time spent in the center section, and the like under the novel environment. A mouse is placed in an open field, which is a novel and bright environment for a mouse, and is allowed to freely explore the open field for a certain period of time. The open field has a circular or square shape, and the size, in the case of a square, varies from a side of over 1 m to 30 cm or less. The experiment time is approximately 5 minutes in general, and significant overactivity, dormancy, and the like can be detected through observation for such a short period of time. In addition, a change in the behavior of an animal over time under a novel environment can be observed by recording for a long period of time. Since it is said that mice get accustomed to the open field environment by 30 minutes to approximately 2 hours, the experiment time is often set between 30 minutes to 3 hours. Also, the open field test is often used for analyzing the phenotyping of gene-modified mice and testing the reactivity to pharmaceutical agents. […] The duration of time spent in the center square (9×9 […]) during an exploratory behavior time of 5 minutes was measured.

For a further experiment, the system named is oxytocin mRNA. Description: oxytocin mRNA expression in hypothalamus, quantitative real-time PCR. The settings on record: oral 3 g/kg, 2 hours after administration, vs saline-administered group, relative to 36b4 (FIG. 5). It is filed as in vivo, C57BL/6J male mice. As to the method: as §2, §3

As to `O=C(CO)[C@H](O)[C@H](O)[C@H](O)CO` [D-allulose], the “c-Fos expression level in the paraventricular nucleus (PVN), the supraoptic nucleus (SON), and a new region of the hypothalamus” value in experiment [1] is reported as “significantly facilitated”. Moreover, in the experiment on vasopressin mRNA, the “expression of the mRNA of vasopressin in the hypothalamus” value is recorded as “significantly enhanced”. Besides, the “c-Fos expression level in the oxytocin (OXT) neuron of the paraventricular nucleus (PVN)” value with oxytocin (OXT) neurons (vs saline (FIGS. 2A, 2B)) is “significantly increased”. Besides, the “activation (c-Fos) of the oxytocin neurons of the supraoptic nucleus (SON)” value in the experiment with oxytocin (OXT) neurons (vs saline (FIGS. 3A, 3B)) is reported as “activated”. For the same molecule, in the experiment on oxytocin (OXT) neurons (vs saline (FIGS. 4A, 4B)), the “activation (c-Fos) of the oxytocin neurons in the new region of the hypothalamus” value is given as “activated”. The “social behavior: accumulation time of exploratory behavior against the new mouse” value in the experiment with C57BL/6J male mice [2] (1 g/kg oral) and in the experiment with C57BL/6J male mice [2] (3 g/kg oral) was “significantly facilitated” in each case. The “activation (c-Fos) of the vasopressin (AVP) neuron of the paraventricular nucleus (PVN)” value in experiment [3] (vs saline (FIGS. 2C, 2D)) was “activated”. Besides, the “activation (c-Fos) of the vasopressin neurons of the supraoptic nucleus (SON)” value in experiment [3] (vs saline (FIGS. 3A, 3B)) was “activated”. Further, the “activation (c-Fos) of the vasopressin neurons in the new region of the hypothalamus” value in experiment [3] (vs saline (FIGS. 4A, 4B)) was “activated”. Moreover, the “anxiety behavior: duration of time spent in the center square” value in the experiment with C57BL/6J male mice [4] (1 g/kg oral 30 minutes before test, vs saline (FIG. 6B)) is given as “no significant result”; in the experiment on C57BL/6J male mice [4] (3 g/kg oral 30 minutes before test, vs saline, p<0.05 (FIG. 6B)) it was “significantly improved”. Besides, in the experiment on oxytocin mRNA, the “expression of the mRNA of oxytocin in the hypothalamus” value is reported as “significantly enhanced”.
